Values quoted from earlier work, collected in patent publication US20110052580A1, “USE OF PICOPLATIN AND BEVACIZUMAB TO TREAT COLORECTAL CANCER” (Poniard Pharmaceuticals, Inc., priority 2008, published 2011).

Columns and labels:
[1] = system: metastatic colorectal cancer (MCRC); details: single agent therapy
[2] = system: human vascular endothelial growth factor (VEGF)
[3] = system: xenotransplant models of colon cancer; details: mouse, in vivo

Chain of human vascular endothelial growth factor (VEGF) (P15692 207-311 limits assumed): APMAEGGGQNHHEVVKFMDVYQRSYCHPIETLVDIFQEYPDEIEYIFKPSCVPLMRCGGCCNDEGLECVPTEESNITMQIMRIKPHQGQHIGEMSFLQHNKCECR

Row | Compound | Median survival [1] [months] | Progression-free survival, median [1] [months] | Response rate [1] [%] | Binding to and inhibition of VEGF [2] | Effect on metastatic disease progression [3] | Effect on microvascular growth [3]
1 | CCc1c2c(nc3ccc(OC(=O)N4CCC(N5CCCCC5)CC4)cc13)-c1cc3c(c(=O)n1C2)COC(=O)[C@]3(O)CC [irinotecan] | ~12 | 4.3 | 18 | – | – | –
2 | O=C1[O][Pt]2([NH][C@@H]3CCCC[C@H]3[NH]2)[O]C1=O [oxaliplatin] | ~14.5 | 4.0 | 12 | – | – | –
3 | bevacizumab: recombinant humanized monoclonal IgGl antibody that binds to and inhibits human vascular endothelial growth factor (VEGF) | – | – | – | binds to and inhibits the biologic activity of human vascular endothelial growth factor (VEGF) | inhibition of metastatic disease progression | reduction of microvascular growth
